{
  "source": "patent US20040254170A1",
  "about": "“Method of treating functional bowel disorders” (Dynogen, Inc., priority 2003, published 2004)",
  "key": {"[1]": {"system": "acetic acid sensitized male Fisher rats", "assay": "Visceromotor response to colorectal distension, acetic acid-induced colonic hypersensitivity", "format": "in vivo, rat", "conditions": "for visceromotor response (number of abdominal contractions) to CRD compared to vehicle: all doses i.p. (ondansetron 1, 5, 10 mg/kg; nisoxetine 3, 10, 30 mg/kg), all distension pressures", "experimental": "The visceromotor behavioral response to colorectal distension was measured by counting the number of abdominal contractions recorded by a strain gauge sutured onto the abdominal musculature as described in Gunter et al., Physiol. […] A 5 cm latex balloon catheter inserted via the anal canal into the colon was used for colorectal distensions. Constant pressure tonic distensions were performed in a graded manner (15, 30 or 60 mmHg) and were maintained for a period of 10 min and the numbers of abdominal muscle contractions were recorded to measure the level of colonic sensation. A 10 min recovery was allowed between distensions.\nJ. Physiol. […] In the present study, a low concentration of acetic acid (1.5 ml, 0.6%) was administered intracolonically to sensitize the colon without causing histological damage to the colonic mucosa as described in previous studies (Gunter et al., supra).\nInjection volume was 0.2 mL using 100% propylene glycol as the vehicle. Three consecutive colorectal distensions at 15, 30 or 60 mmHg applied at 10-min intervals were recorded. Visceromotor responses were evaluated as the number of abdominal muscle contractions recorded during the 10-min periods of colorectal distension.\nAdult male rats were used in the study. […] Specifically, rats were anesthetized with Isoflurane (2%) and were instrumented with a strain gauge force transducer for recording of abdominal muscle contractions. A latex balloon and catheter were inserted 11 cm into the colon. The animals were allowed a 30-min period to completely recover from the anesthesia and were then subjected to intracolonic infusion of acetic acid (1.5 mL, 0.6%). An additional 30-min period was allowed for sensitization of the colon. […] The protocol for colorectal distension was initiated 30-min post drug administration. After a basal reading of the number of abdominal contractions with the balloon inserted but not distended, three consecutive 10-min lasting colorectal distensions at 15, 30, and 60 mmHg were applied at 10-min intervals. Colorectal sensitivity was evaluated by counting the number of reflex abdominal contractions (i.e. the visceromotor response) observed within each distension period.\nAcetic acid-induced colonic hypersensitivity in rats has been described by Langlois et al. and Plourde et al., referenced above.\nThe visceromotor behavioral response to colorectal distension was measured by counting the number of abdominal contractions recorded by a strain gauge sutured onto the abdominal musculature as previously described Gunter et al., referenced above. Colorectal distensions were carried out utilizing a 5 cm latex balloon catheter inserted into the colon via the anal canal. Constant pressure tonic distensions were performed in a graded manner, i.e., the pressure was increased to the desired level of 15, 30, or 60 mmHg and then maintained for a period of 10 minutes during which the number of abdominal contractions were recorded to measure the level of colonic sensation. Ten minute recovery periods were allowed following each distension."}, "[2]": {"system": "male F-344 rats", "assay": "Small Intestinal Transit (SIT) Rodent Model, charcoal meal", "format": "in vivo, rat", "conditions": "for Small intestinal transit, Mean (% of total small intestinal length): 15 min after charcoal meal", "text": "Specifically, the effects of MCI-225, the reference compounds (ondansetron and nisoxetine) and the vehicle on small intestinal transit were investigated in rats under control conditions. Following an overnight fast, rats were brought to the laboratory in their home cages and received an i.p. injection of one of the following: MCI-225, 100% propylene glycol (vehicle), ondansetron, nisoxetine and a combination of ondansetron and nisoxetine. Control rats received no treatment. The treated rats were placed back in the home cages and after 30 min, were fed a 2 mL charcoal meal via an oral gavage. Small intestinal transit was measured following 15 min test-period. Each rat was placed briefly in a glass chamber with IsoFlo for anesthesia and sacrificed. The stomach and the small intestine were removed and the total length of the small intestine was measured. Transit was then measured as the distance that the charcoal meal had traveled along the small intestine and expressed as % of the total length. Animals were randomly assigned to experimental groups and experiments were performed as illustrated in Table 3.\nSmall intestinal transit in rats was investigated by the passage of a charcoal meal along the small intestine during a defined time period (15-min). The animals were deprived of food for 12-16 hrs prior to the experiments. Rats were given a charcoal meal (a mixture of charcoal, gum arabic, and distilled water) as a 2 mL oral gavage and were sacrificed after a 15-min test period. The distance traveled by the charcoal meal was quantified as a percent of the small intestinal length, using the following equation:\nTransit (%)=cm traveled by meal/cm total small intestinal length×100\nSmall intestinal transit was evaluated in relative units (%) of the total intestinal length in the following groups receiving different drug treatment: naïve (untreated), vehicle (propylene glycol, 200 μL i.p.), MCI-225 (3, 10 and 30 mg/kg, i.p.), nisoxetine (3, 10 and 30 mg/kg, i.p.), ondansetron (1, 5 and 10 mg/kg, i.p.) and a combination of nisoxetine (10 mg/kg, i.p.) and ondansetron (5 mg/kg, i.p.). A total of 61 experiments were performed (4-6 rats per group)."}, "[3]": {"system": "male F-344 rats subjected to water avoidance stress", "assay": "Water Avoidance Stress (WAS) model, fecal pellet output", "format": "in vivo, rat", "conditions": "for number of fecal pellets produced during 1 hour of WAS compared to vehicle: all doses i.p. (MCI-225, nisoxetine 3, 10, 30 mg/kg; ondansetron 1, 5, 10 mg/kg)", "text": "The model used in this example provided a method of determining the ability of MCI-225 to normalize accelerated colonic transit induced by water avoidance stress (WAS). […] The model provides a method of evaluating the effectiveness of a compound in a specific patient group of IBS sufferers where stress induced colonic motility is considered a significant contributing factor. All rats underwent sham stress (1-hour in stress chamber without water) for 2-4 consecutive days before undergoing WAS (sham was performed until rats produced 0-1 pellet per hour for 2 consecutive days). At the end of the 1-hour stress period, the fecal pellets were counted and recorded. WAS causes an acceleration of colonic transit, which can be quantified by counting the number of fecal pellets, produced during the stress procedure. Rats were placed for 1-hour into a stress chamber onto a raised platform 7.5 cm×7.5 cm×9 cm (L×W×H) in the center of a stress chamber filled with room temperature water 8 cm in depth. The stress chamber was constructed from a rectangular plastic tub (40.2×60.2×31.2 cm). […] Ondansetron was supplied from APIN Chemicals LTD. […] MCI-225 was provided by Mitsubishi Pharma Corp. All drugs were dissolved in a vehicle of 100% propylene glycol (1,2-propanediol) by sonicating for a period of 10 minutes. Propylene glycol was obtained from Sigma Chemical Co. […] All drugs and the vehicle were administered as an i.p. injection in a volume of 0.2 mL."}, "[4]": {"target": "T1, noradrenaline transporter ([^3H]NA uptake) (Rattus norvegicus, UniProt Q9WTR4)", "T1 construct": "The [^3H]NA uptake assays are performed on the cortical and hypothalamic synaptosomes; from tissue; host or cells: rat hypothalamic and cortical synaptosomes (P2 fraction)", "T1 sequence (Q9WTR4 1-597)": "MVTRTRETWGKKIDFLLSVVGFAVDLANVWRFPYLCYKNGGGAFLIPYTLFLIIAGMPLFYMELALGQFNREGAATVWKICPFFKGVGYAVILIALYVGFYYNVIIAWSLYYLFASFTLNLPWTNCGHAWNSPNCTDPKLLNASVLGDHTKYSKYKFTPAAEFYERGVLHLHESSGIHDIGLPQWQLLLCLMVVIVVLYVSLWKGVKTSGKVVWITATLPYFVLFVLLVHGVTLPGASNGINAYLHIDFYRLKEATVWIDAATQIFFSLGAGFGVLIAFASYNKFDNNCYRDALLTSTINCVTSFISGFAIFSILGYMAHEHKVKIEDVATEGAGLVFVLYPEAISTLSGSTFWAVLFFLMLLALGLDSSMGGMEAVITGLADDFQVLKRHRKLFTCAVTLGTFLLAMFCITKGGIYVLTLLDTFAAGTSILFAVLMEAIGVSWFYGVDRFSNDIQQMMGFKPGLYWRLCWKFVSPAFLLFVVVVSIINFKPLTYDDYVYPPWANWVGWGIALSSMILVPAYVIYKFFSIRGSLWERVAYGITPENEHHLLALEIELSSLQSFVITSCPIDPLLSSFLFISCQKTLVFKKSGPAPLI", "conditions": "read-out: Ki, inhibition of [3H]NA uptake, cited from earlier work"}, "[5]": {"target": "T2, 5-HT3 receptor (Mus musculus, UniProt P23979)", "T2 construct": "host or cells: N1E-115 mouse neuroblastoma cells", "T2 sequence (P23979 24-489)": "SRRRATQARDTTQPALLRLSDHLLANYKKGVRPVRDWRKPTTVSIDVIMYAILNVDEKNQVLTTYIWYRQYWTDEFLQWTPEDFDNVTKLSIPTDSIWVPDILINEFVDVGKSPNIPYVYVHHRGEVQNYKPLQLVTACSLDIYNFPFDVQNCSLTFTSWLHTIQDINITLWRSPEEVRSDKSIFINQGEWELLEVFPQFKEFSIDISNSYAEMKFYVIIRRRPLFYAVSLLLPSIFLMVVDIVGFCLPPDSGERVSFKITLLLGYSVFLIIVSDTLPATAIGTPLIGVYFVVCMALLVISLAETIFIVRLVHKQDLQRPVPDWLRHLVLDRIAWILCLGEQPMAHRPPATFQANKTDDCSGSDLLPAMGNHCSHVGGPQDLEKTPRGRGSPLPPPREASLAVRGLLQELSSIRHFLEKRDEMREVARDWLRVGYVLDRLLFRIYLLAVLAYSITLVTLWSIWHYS", "conditions": "radioligand binding; read-out: Ki, affinity for the 5-HT3 receptor; cited from earlier work"}, "[6]": {"target": "T3, dopamine reuptake ([^3H]DA uptake) (Rattus norvegicus, UniProt P23977)", "T3 construct": "the [^3H]DA uptake assays are performed on striatal synaptosomes; from tissue; host or cells: rat striatal synaptosomes (P2 fraction)", "T3 sequence (P23977 whole entry)": "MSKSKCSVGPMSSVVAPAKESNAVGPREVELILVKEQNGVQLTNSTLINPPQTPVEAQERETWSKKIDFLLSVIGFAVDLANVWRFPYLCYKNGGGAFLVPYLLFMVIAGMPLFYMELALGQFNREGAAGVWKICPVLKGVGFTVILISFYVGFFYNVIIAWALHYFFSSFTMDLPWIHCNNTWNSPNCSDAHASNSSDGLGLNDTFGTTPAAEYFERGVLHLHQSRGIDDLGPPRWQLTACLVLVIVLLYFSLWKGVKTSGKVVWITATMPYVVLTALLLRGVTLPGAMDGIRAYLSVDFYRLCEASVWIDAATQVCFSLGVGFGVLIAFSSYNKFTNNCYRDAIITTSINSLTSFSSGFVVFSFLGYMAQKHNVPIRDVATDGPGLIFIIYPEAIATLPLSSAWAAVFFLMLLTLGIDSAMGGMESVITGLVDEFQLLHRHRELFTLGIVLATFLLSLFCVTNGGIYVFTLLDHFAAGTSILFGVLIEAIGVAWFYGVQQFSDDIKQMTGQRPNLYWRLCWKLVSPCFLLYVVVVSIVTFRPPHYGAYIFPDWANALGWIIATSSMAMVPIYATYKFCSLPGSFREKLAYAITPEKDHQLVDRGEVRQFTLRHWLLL", "conditions": "synaptosomes from rat striatal tissue; read-out: Ki, inhibition of [3H]DA uptake; cited from earlier work"}, "[7]": {"target": "T4, serotonin reuptake ([^3H]5-HT uptake) (Rattus norvegicus, UniProt P31652)", "T4 construct": "The [^3H]5-HT uptake assays are performed on the cortical, hypothalamic and hippocampal synaptosomes; from tissue; host or cells: rat hypothalamic, cortical and hippocampal synaptosomes (P2 fraction)", "T4 sequence (P31652 whole entry)": "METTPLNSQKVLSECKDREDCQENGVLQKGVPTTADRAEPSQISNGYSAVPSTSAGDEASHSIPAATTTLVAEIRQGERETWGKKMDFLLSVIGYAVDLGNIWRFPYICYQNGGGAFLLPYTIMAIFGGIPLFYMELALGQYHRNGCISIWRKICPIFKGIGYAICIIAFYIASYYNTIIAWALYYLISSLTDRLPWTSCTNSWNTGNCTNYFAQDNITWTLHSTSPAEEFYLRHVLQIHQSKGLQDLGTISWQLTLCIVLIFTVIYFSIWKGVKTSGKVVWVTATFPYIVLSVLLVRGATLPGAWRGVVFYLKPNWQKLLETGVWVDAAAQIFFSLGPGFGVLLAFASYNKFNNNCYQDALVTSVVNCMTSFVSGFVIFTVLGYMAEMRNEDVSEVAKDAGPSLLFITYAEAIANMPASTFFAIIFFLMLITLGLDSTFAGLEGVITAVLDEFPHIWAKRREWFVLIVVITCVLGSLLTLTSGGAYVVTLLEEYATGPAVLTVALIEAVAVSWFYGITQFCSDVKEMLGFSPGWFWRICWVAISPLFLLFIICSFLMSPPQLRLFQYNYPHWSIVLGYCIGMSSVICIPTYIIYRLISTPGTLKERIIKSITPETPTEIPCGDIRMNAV", "conditions": "cited from earlier work"}},
  "note": "Where “and” joins values, the source holds several entries; their conditions need not be identical. Identical values can stand only once. Like-named read-outs stand apart in the source and are kept apart here.",
  "data": [
    {"molecule": "CNCCC(Oc1ccccc1OC)c1ccccc1", "note": "(stereo not drawn) [Nisoxetine]", "values": [
      {"measurement": "behavior in the home cage during the experiments", "setting": "[1]; Example 2, 30 mg/kg i.p.", "value": "increased exploratory behavior"},
      {"measurement": "visceromotor response (number of abdominal contractions) to CRD compared to vehicle", "setting": "[1]; Example 2", "value": "no significant effect"},
      {"measurement": "Small intestinal transit, Mean (% of total small intestinal length)", "setting": "[2]; 3 mg/kg i.p.", "value": 40.3, "unit": "%"},
      {"measurement": "Small intestinal transit, Mean (% of total small intestinal length)", "setting": "[2]; 10 mg/kg i.p.", "value": 38.6, "unit": "%"},
      {"measurement": "animals with charcoal meal completely retained in the stomach", "setting": "[2]; 30 mg/kg i.p.", "value": "4 out of 5"},
      {"measurement": "small intestinal transit", "setting": "[2]; 30 mg/kg i.p.", "value": "almost completely inhibited"},
      {"measurement": "Small intestinal transit, Mean (% of total small intestinal length)", "setting": "[2]; 30 mg/kg i.p.", "value": 4.7, "unit": "%"},
      {"measurement": "small intestinal transit", "setting": "[2]; 3 or 10 mg/kg i.p.", "value": "tendency to decrease"},
      {"measurement": "number of fecal pellets produced during WAS compared to vehicle", "setting": "[3]; 10 and 30 mg/kg i.p.", "value": "significantly fewer"},
      {"measurement": "number of fecal pellets produced during 1 hour of WAS compared to vehicle", "setting": "[3]", "value": "reduced by all doses"}
    ]},
    {"molecule": "Cc1cc2c(-c3ccccc3F)nc(N3CCNCC3)nc2s1", "note": "[MCI-225, 4-(2-fluorophenyl)-6-methyl-2-(1-piperazinyl)thieno[2,3-d]pyrimidine]", "values": [
      {"measurement": "animals in which the visceromotor response to CRD was eliminated", "setting": "[1]; Example 1, 30 mg/kg i.p., n=6, CRD 15, 30, 60 mmHg", "value": 50, "unit": "%"},
      {"measurement": "Small intestinal transit, Mean (% of total small intestinal length)", "setting": "[2]; 3 mg/kg i.p.", "value": 30.1, "unit": "%"},
      {"measurement": "Small intestinal transit, Mean (% of total small intestinal length)", "setting": "[2]; 10 mg/kg i.p.", "value": "4.2±2.6% and 4.2%"},
      {"measurement": "Small intestinal transit, Mean (% of total small intestinal length)", "setting": "[2]; 30 mg/kg i.p.", "value": 8.8, "unit": "%"},
      {"measurement": "Ki", "setting": "[4]; synaptosomes from rat cortical tissue", "value": 0.696, "unit": "nM"},
      {"measurement": "Ki", "setting": "[4]; synaptosomes from rat hypothalamic tissue", "value": 35, "unit": "nM"},
      {"measurement": "Ki", "setting": "[5]", "value": "< 100", "unit": "nM"},
      {"measurement": "Ki", "setting": "[6]", "value": 14800, "unit": "nM"},
      {"measurement": "Ki", "setting": "[7]; synaptosomes from rat cortical tissue, read-out: Ki, inhibition of [3H]5-HT uptake", "value": 1070, "unit": "nM"},
      {"measurement": "Ki", "setting": "[7]; synaptosomes from rat hippocampal tissue, read-out: Ki, inhibition of serotonin uptake", "value": 244, "unit": "nM"},
      {"measurement": "Ki", "setting": "[7]; synaptosomes from rat hypothalamic tissue, read-out: Ki, inhibition of [3H]5-HT uptake", "value": 491, "unit": "nM"}
    ]},
    {"molecule": "Cc1nccn1CC1CCc2c(c3ccccc3n2C)C1=O", "note": "(stereo not drawn) [Ondansetron]", "values": [
      {"measurement": "visceromotor response (number of abdominal contractions) to CRD compared to vehicle", "setting": "[1]; Example 2", "value": "significant dose-dependent inhibition"},
      {"measurement": "changes in behavioral activity of the rats", "setting": "[1]; Example 2, following treatment 1, 5 or 10 mg/kg i.p.", "value": "No significant changes"},
      {"measurement": "responses to moderate and high intraluminal pressure", "setting": "[1]; Example 2, highest dose 10 mg/kg i.p., 30 and 60 mmHg, responses not abolished", "value": "reduced these responses to levels characteristic for naïve non-sensitized rats"},
      {"measurement": "Small intestinal transit, Mean (% of total small intestinal length)", "setting": "[2]; 1 mg/kg i.p.", "value": 27.6, "unit": "%"},
      {"measurement": "Small intestinal transit, Mean (% of total small intestinal length)", "setting": "[2]; 5 mg/kg i.p.", "value": 32.1, "unit": "%"},
      {"measurement": "Small intestinal transit, Mean (% of total small intestinal length)", "setting": "[2]; 10 mg/kg i.p.", "value": 18.4, "unit": "%%"},
      {"measurement": "small intestinal transit compared to vehicle", "setting": "[2]; across doses i.p. (MCI-225 3, 10, 30 mg/kg; ondansetron 1, 5, 10 mg/kg)", "value": "significant reduction"},
      {"measurement": "advance of the charcoal meal from the stomach into the small intestine", "setting": "[2]; doses tested i.p.", "value": "a portion of the charcoal meal was always found to advance"},
      {"measurement": "number of fecal pellets produced during 1 hour of WAS compared to vehicle", "setting": "[3]", "value": "significantly less"}
    ]}
  ]
}
